In US10196345B2, “MAO-B selective inhibitor compounds, pharmaceutical compositions thereof and uses thereof” (The University of British Columbia, priority 2013, dated 2019):
Structures can show the parent of a compound that is named as a salt. Where two headings read alike, the source gives them in different places.

Tests used:
[1] = biological target: T1, recombinant human MAO-A (Homo sapiens, UniProt P21397); test: Cell-free Fluorescent Monoamine Oxidase A&B Detection Assay, MAO-A; format: biochemical
T1 sequence (P21397 1-527): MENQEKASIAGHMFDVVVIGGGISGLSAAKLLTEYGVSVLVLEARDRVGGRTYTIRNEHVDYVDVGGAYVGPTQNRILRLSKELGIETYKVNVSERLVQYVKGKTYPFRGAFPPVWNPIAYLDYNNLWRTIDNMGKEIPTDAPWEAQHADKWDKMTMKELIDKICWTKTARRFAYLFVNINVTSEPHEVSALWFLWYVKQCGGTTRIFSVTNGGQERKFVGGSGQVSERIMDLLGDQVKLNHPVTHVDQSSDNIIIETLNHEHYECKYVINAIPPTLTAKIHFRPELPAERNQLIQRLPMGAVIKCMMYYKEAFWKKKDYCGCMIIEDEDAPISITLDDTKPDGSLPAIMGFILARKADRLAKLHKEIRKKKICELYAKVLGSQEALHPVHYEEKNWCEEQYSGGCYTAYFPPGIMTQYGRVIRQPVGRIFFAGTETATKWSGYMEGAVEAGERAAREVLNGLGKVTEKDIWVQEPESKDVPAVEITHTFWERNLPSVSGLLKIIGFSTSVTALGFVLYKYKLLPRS
Experimental: (§1) The assay was repeated to confirm data.
(§2) MAO B specific inhibitory activity and selectivity over MAO A is assayed using a commercial kit [Fluoro MAO A and B detection kit (Cell Technology Inc™)]. This kit uses a non-fluorescent detection reagent to measure H2O2 released from the conversion of an MAO A and MAO B substrate specific to its aldehyde. Furthermore, H2O2 oxidizes the detection reagent in a 1:1 stoichiometry to produce a fluorescent product (resorufin). […] This information is then provided to the medicinal chemists to help direct synthesis of subsequent iterations.

[2] = biological target: T2, recombinant human MAO-B (Homo sapiens, UniProt P27338); test: Cell-free Fluorescent Monoamine Oxidase A&B Detection Assay, MAO-B; format: biochemical
T2 sequence (P27338 1-520): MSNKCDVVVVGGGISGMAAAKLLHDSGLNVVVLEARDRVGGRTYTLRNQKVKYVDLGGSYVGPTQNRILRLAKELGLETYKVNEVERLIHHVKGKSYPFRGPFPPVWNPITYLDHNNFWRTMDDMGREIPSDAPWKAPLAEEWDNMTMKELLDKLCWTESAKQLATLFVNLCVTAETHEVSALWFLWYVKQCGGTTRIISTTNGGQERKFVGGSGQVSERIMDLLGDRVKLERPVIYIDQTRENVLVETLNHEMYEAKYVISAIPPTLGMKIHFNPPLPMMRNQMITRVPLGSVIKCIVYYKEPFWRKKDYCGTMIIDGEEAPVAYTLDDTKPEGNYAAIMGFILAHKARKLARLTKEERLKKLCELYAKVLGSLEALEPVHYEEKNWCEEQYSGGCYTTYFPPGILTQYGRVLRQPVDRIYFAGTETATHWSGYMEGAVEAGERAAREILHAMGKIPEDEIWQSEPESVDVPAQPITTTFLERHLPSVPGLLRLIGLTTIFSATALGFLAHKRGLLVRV
Experimental: as §1, §2

[3] = cell-free, recombinant human MAO-A
[4] = cell-free, recombinant human MAO-A, read-out: IC50 MAO-A
[5] = cell-free, recombinant human MAO-A, read-out: IC90 MAO-A

C[C@H](Cc1ccc(OCc2ccncc2)cc1)N(C)CC(=O)O.Cl.Cl [PS-AD0068, (R)—N-methyl-N-(1-(4-(pyridin-4-ylmethoxy)phenyl)propan-2-yl)glycine hydrochloride]
IC50 MAO-A (μM) [1, 3]: Does not
IC90 [2]: 506 µM
IC50 ([2]; read-out: IC50 MAO-B): 20 µM

C[C@H](Cc1ccc(Oc2ccccc2)cc1)N(C)CC(=O)O [PS-RG0008, N—((R)-(1-(4-(phenoxy)phenyl)propan-2-yl)(methyl))glycine hydrochloride]
IC50 MAO-A (μM) [1, 3]: Does not
IC90 [2]: 331 µM
IC50 ([2]; read-out: IC50 MAO-B): 69.2 µM

C[C@H](Cc1ccc(OCc2ccc(Cl)cc2)cc1)N(C)CC(=O)O [PS-RG0226, (R)—N-(1-(4-((4-chlorobenzyl)oxy)phenyl)propan-2-yl)-N-methylglycine hydrochloride]
IC50 [1, 4]: 198 µM
IC90 [1, 5]: 1260 µM
IC90 [2]: 3.42 µM
IC50 ([2]; read-out: IC50 MAO-B): 0.505 µM

C[C@H](Cc1ccc(OCc2cnc3ncccn23)cc1)N(C)CC(=O)O.Cl [PS-AD0223]
IC50 MAO-A (μM) [1, 3]: Does not
IC90 MAO-B (μM) [2]: Does not

C[C@H](Cc1ccc(OCc2ccccn2)cc1)N(C)CC(=O)O.Cl.Cl [PS-RG0217, (R)—N-methyl-N-(1-(4-(pyridin-2-ylmethoxy)phenyl)propan-2-yl)glycine hydrochloride]
IC50 MAO-A (μM) [1, 3]: Does not
IC90 [2]: 577 µM
IC50 ([2]; read-out: IC50 MAO-B): 26.6 µM

CN(CC(=O)O)[C@H](CO)Cc1ccc(OCc2ccccc2)cc1 [PS-RG0188, (S)—N-(1-(4-(benzyloxy)phenyl)-3-hydroxypropan-2-yl)-N-methylglycine]
IC50 MAO-A (μM) [1, 3]: Does not
IC90 [2]: 19.7 µM
IC50 ([2]; read-out: IC50 MAO-B): 0.738 µM

CN(CC(=O)O)C(=O)C=C1COc2cc(Oc3ccccc3)ccc21 [PS-RG0080]
IC50 MAO-A (μM) [1, 3]: Does not
IC90 MAO-B (μM) [2]: Does not

C[C@H](Cc1ccc(OCc2cccc(C#N)c2)cc1)N(C)CC(=O)O.Cl [PS-RG0172, (R)—N-(1-(4-((3-cyanobenzyl)oxy)phenyl)propan-2-yl)-N-methylglycine hydrochloride]
IC50 MAO-A (μM) [1, 3]: Does not
IC90 [2]: 1840 µM
IC50 ([2]; read-out: IC50 MAO-B): 19.7 µM

C[C@H](Cc1ccc(OCc2ccc3ccccc3c2)cc1)N(C)CC(=O)O [PS-RG0227, (R)—N-methyl-N-(1-(4-(naphthalen-2-ylmethoxy)phenyl)propan-2-yl)glycine hydrochloride]
IC50 [1, 4]: 955 µM
IC90 [1, 5]: 63000 µM
IC90 [2]: 843 µM
IC50 ([2]; read-out: IC50 MAO-B): 11.5 µM

COc1cccc(COc2ccc(C[C@@H](C)N(C)CC(=O)O)cc2)c1 [PS-RG0264, (R)—N-(1-(4-((3-methoxybenzyl)oxy)phenyl)propan-2-yl)-N-methylglycine hydrochloride]
IC50 [1, 4]: 359 µM
IC90 [1, 5]: 78500 µM
IC90 [2]: 50.5 µM
IC50 ([2]; read-out: IC50 MAO-B): 2.22 µM

CN(CCc1ccc(OCc2ccccc2)cc1)CC(=O)O.Cl [PS-RG0064, N,N-(4-(Benzyloxy)phenethyl)(methyl)glycine hydrochloride]
IC50 MAO-A (μM) [1, 3]: Does not
IC90 [2]: 252 µM
IC50 ([2]; read-out: IC50 MAO-B): 7.33 µM

C[C@H](Cc1ccc(OCc2ccc(C#N)cc2)cc1)N(C)CC(=O)O.Cl [PS-AD0065, (R)—N-(1-(4-((4-cyanobenzyl)oxy)phenyl)propan-2-yl)-N-methylglycine hydrochloride]
IC50 MAO-A (μM) [1, 3]: Does not
IC90 [2]: 81.1 µM
IC50 ([2]; read-out: IC50 MAO-B): 3.28 µM

C[C@H](Cc1ccc(OCc2cc(Cl)ccc2Cl)cc1)N(C)CC(=O)O.Cl [PS-AD0064, (R)—N-(1-(4-((2,5-dichlorobenzyl)oxy)phenyl)propan-2-yl)-N-methylglycine hydrochloride]
IC50 MAO-A (μM) [1, 3]: Does not
IC90 [2]: 25.8 µM
IC50 ([2]; read-out: IC50 MAO-B): 1.27 µM

COC(=O)c1ccc(COc2ccc(C[C@@H](C)N(C)CC(=O)O)cc2)cc1.Cl [PS-RG0246, (R)—N-(1-(4-((4-(methoxycarbonyl)benzyl)oxy)phenyl)propan-2-yl)-N-methylglycine hydrochloride]
IC50 MAO-A (μM) [1, 3]: Does not
IC90 [2]: 10600 µM
IC50 ([2]; read-out: IC50 MAO-B): 361 µM

CN(CC(=O)O)[C@H](CC#N)Cc1ccc(OCc2ccccc2)cc1.Cl [PS-AD0186, (S)—N-(1-(4-(benzyloxy)phenyl)-3-cyanopropan-2-yl)-N-methylglycine]
IC50 MAO-A (μM) [1, 3]: Does not
IC90 [2]: 4.44 µM
IC50 ([2]; read-out: IC50 MAO-B): 0.56 µM

C#CCN(C)[C@H](C)Cc1ccc(OCc2ccccc2)cc1 [PS-RG0061]
IC50 ([1]; IC50 MAO-A (μM), cell-free, recombinant human MAO-A): 0.163 µM
IC90 ([1]; read-out: IC90 MAO-A (μM)): 1.05 µM
IC90 [2]: 0.023 µM
IC50 ([2]; read-out: IC50 MAO-B): 0.00458 µM

O=C([O-])C1=N[C@@H](Cc2ccccc2)CO1.[Na+] [PS-RG0200]
IC50 MAO-A (μM) [1, 3]: Does not
IC90 MAO-B (μM) [2]: Does not

COC(=O)[C@H](Cc1ccc(OCc2cccc(Cl)c2)cc1)N(C)CC(=O)O [PS-RG0122, N-Carboxymethyl-N-methyl-O-3-chlorobenzyloxytyrosine methyl ester hydrochloride]
IC50 MAO-A (μM) [1, 3]: Does not
IC90 [2]: 19.1 µM
IC50 ([2]; read-out: IC50 MAO-B): 1.43 µM

CN(CC(=O)O)Cc1cc(=O)oc2cc(Oc3ccccc3)ccc12.Cl [PS-RG0097]
IC50 MAO-A (μM) [1, 3]: Does not
IC90 MAO-B (μM) [2]: Does not

COC(=O)[C@H](Cc1ccc(OCc2ccccc2)cc1)N(C)CC(=O)O.Cl [PS-RG0123, N-Carboxymethyl)-N-(methyl-O-benzyloxytyrosine methyl ester hydrochloride]
IC50 MAO-A (μM) [1, 3]: Does not
IC90 [2]: 354 µM
IC50 ([2]; read-out: IC50 MAO-B): 9.95 µM

C[C@H](Cc1ccc(OCc2cccc(F)c2)cc1)N(C)CC(=O)O.Cl [PS-RG0173, (R)—N-(1-(4-((3-fluorobenzyl)oxy)phenyl)propan-2-yl)-N-methylglycine hydrochloride]
IC50 MAO-A (μM) [1, 3]: Does not
IC90 [2]: 13.5 µM
IC50 ([2]; read-out: IC50 MAO-B): 0.785 µM

C[C@H](Cc1ccc(OCc2ccc(C(=O)O)cc2)cc1)N(C)CC(=O)O.Cl [PS-AD0065 B, (R)-4-((4-(2-((carboxymethyl)(methyl)amino)propyl)phenoxy)methyl)benzoic acid hydrochloride]
IC50 MAO-A (μM) [1, 3]: Does not
IC90 [2]: 149 µM
IC50 ([2]; read-out: IC50 MAO-B): 10 µM

CN(CCc1ccccc1)CC(=O)O.Cl [PS-RG0020]
IC50 MAO-A (μM) [1, 3]: Does not
IC90 MAO-B (μM) [2]: Does not

CN(CC(=O)O)[C@H](CCl)Cc1ccc(OCc2ccccc2)cc1 [PS-AD0095, (S)—N-(1-(4-(benzyloxy)phenyl)-3-chloropropan-2-yl)-N-methylglycine]
IC50 MAO-A (μM) [1, 3]: Does not
IC90 [2]: 13.4 µM
IC50 ([2]; read-out: IC50 MAO-B): 1.4 µM

C[C@H](Cc1ccc(OCc2ccccc2C#N)cc1)N(C)CC(=O)O.Cl [PS-RG0171, (R)—N-(1-(4-((2-cyanobenzyl)oxy)phenyl)propan-2-yl)-N-methylglycine hydrochloride]
IC50 MAO-A (μM) [1, 3]: Does not
IC90 [2]: 1080 µM
IC50 ([2]; read-out: IC50 MAO-B): 13 µM

CN(CCc1ccc(Oc2ccccc2)cc1)CC(=O)O.Cl [PS-RG0058]
IC50 MAO-A (μM) [1, 3]: Does not
IC90 MAO-B (μM) [2]: Does not

C[C@H](Cc1ccc(OCc2cc(F)cc(F)c2)cc1)N(C)CC(=O)O.Cl [PS-RG0174, (R)—N-(1-(4-((3,5-difluorobenzyl)oxy)phenyl)propan-2-yl)-N-methylglycine hydrochloride]
IC50 MAO-A (μM) [1, 3]: Does not
IC90 [2]: 6.7 µM
IC50 ([2]; read-out: IC50 MAO-B): 0.794 µM

C#CCN(C)CCc1ccccc1 [PS-RG0070]
IC50 [1, 4]: 12.5 µM
IC90 [1, 5]: 126 µM
IC90 [2]: 0.0306 µM
IC50 ([2]; IC50 MAO-B (μM)): 0.0107 µM

C[C@H](Cc1ccc(OCc2cccnc2)cc1)N(C)CC(=O)O.Cl.Cl [PS-RG0218]
IC50 MAO-A (μM) [1, 3]: Does not
IC90 MAO-B (μM) [2]: Does not

CN(CC(=O)O)Cc1ccccc1.Cl [PS-RG0019]
IC50 MAO-A (μM) [1, 3]: Does not
IC90 MAO-B (μM) [2]: Does not

O=C(O)c1coc(Cc2ccc(OCc3ccccc3)cc2)n1 [PS-AD0031]
IC50 MAO-A (μM) [1, 3]: Does not
IC90 MAO-B (μM) [2]: Does not

CN(CC(=O)O)Cc1cc(=O)oc2cc(OCc3ccccc3)ccc12.Cl [PS-RG0098, N-((7-(benzyloxy)-2-oxo-2H-chromen-4-yl)methyl)-N-methylglycine hydrochloride]
IC50 MAO-A (μM) [1, 3]: Does not
IC90 [2]: 4.1 µM
IC50 ([2]; read-out: IC50 MAO-B): 0.799 µM

C[C@H](Cc1ccc(OCC(=O)O)cc1)N(C)CC(=O)O.Cl [PS-RG0219]
IC50 MAO-A (μM) [1, 3]: Does not
IC90 MAO-B (μM) [2]: Does not
